Among the test systems are LXFL 529; M19-MEL; HOP-18; SNB-78; DLD-1; DMS-114; RXF 631; DMS-273.
Assay in all cases: NCI tumour cell line growth inhibition, 48 h

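All cell lines were grown in 96-well plates and treated with compound for 48 hours. GI50 marks 50% less growth.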 Active and inactive are the calls of the source. Rule as the data show it: active = GI50 up to about 1.1 µM and inactive = higher.

Regarding `CCC1=C(C[C@H]2NCCc3cc(OC)c(OC)cc32)C[C@H]2c3cc(OC)c(OC)cc3CCN2C1`, the GI50 was 0.0316 µM (active) in the assay with LXFL 529; 0.0251 µM (active) in the assay with M19-MEL; 0.667 µM (active) in the assay with HOP-18; 0.0388 µM (active) with SNB-78; 0.0296 µM (active) in the assay on DLD-1; 0.0166 µM (active) in the assay with DMS-114. Further, the values for the GI50 in the assay on RXF 631 and with DMS-273 were 0.0412 µM (active) and 0.0274 µM (active), respectively.
`COC(=O)C1=C(\O)C[C@@]2(C)CC[C@@H](C(=O)OC)C2C/C=C\1C(=O)OC` (some centres undefined): the GI50 is 62.2 µM (inactive) in the assay with LXFL 529; > 100 µM (inactive) in the assay with M19-MEL; > 100 µM (inactive) in the assay with HOP-18; > 100 µM (inactive) in the assay on SNB-78; > 100 µM (inactive) with DLD-1; 29.4 µM (inactive) in the assay with DMS-114. For the same compound, the GI50 with RXF 631 and in the assay with DMS-273 was > 100 µM (inactive) each time.
Regarding `CN1CCOC(c2ccccc2)O1` (centres undefined), the GI50 in the assay on LXFL 529, in the assay with M19-MEL, with HOP-18, in the assay on SNB-78, in the assay on DLD-1 and in the assay with DMS-114 was > 100 µM (inactive) each time. Besides, the GI50 in the assay on RXF 631 and in the assay with DMS-273 was > 100 µM (inactive) in each case.

The values above are taken from ChEMBL document CHEMBL1201862, “PubChem BioAssay data set” (2004).
